Assay [1] concerns the target T1, Sodium-dependent dopamine transporter (Homo sapiens, UniProt Q01959). The assay is described as follows: Inhibition of monoamine reuptake at dopamine transporter.
For assay [2], the target named is T2, Sodium-dependent serotonin transporter (Homo sapiens, UniProt P31645). The assay is described as follows: Inhibition of monoamine reuptake at serotonin transporter.
Target sequence in this assay (P31645 whole entry): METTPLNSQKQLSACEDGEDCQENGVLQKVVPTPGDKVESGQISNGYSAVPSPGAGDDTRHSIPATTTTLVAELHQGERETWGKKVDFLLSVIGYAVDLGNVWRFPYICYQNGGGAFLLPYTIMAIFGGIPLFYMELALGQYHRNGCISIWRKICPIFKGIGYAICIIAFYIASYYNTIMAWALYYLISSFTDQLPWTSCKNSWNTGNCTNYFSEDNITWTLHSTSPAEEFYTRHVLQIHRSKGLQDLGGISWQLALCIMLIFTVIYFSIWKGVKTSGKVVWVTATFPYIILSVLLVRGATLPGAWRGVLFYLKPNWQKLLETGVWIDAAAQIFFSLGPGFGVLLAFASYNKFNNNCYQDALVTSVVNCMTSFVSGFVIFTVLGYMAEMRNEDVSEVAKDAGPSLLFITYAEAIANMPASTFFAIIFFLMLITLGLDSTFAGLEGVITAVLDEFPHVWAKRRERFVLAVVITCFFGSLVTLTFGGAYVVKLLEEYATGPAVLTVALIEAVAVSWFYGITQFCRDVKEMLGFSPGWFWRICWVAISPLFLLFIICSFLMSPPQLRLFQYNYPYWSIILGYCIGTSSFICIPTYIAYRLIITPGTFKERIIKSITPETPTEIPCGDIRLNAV
Assay [3] concerns the target T1, Sodium-dependent dopamine transporter. Kind of assay: Percentage displacement of [3H]WIN-35428 radioligand from dopamine transporter at concentration of 1000 nM. In general terms: Displacement assays read how much labelled ligand stays bound in the presence of the test substance.
Assay [4] has as its target T2, Sodium-dependent serotonin transporter. Kind of assay: Percentage displacement of [3H]citalopram radioligand from serotonin transporter at concentration of 100 nM.
Target sequence in this assay (P31645 whole entry, looked up): as the sequence (P31645 whole entry) above
The target of assay [5] is T3, Sodium-dependent noradrenaline transporter (Homo sapiens, UniProt P23975). Kind of assay: Inhibition of monoamine reuptake at norepinephrine transporter.
T3 sequence (P23975 whole entry): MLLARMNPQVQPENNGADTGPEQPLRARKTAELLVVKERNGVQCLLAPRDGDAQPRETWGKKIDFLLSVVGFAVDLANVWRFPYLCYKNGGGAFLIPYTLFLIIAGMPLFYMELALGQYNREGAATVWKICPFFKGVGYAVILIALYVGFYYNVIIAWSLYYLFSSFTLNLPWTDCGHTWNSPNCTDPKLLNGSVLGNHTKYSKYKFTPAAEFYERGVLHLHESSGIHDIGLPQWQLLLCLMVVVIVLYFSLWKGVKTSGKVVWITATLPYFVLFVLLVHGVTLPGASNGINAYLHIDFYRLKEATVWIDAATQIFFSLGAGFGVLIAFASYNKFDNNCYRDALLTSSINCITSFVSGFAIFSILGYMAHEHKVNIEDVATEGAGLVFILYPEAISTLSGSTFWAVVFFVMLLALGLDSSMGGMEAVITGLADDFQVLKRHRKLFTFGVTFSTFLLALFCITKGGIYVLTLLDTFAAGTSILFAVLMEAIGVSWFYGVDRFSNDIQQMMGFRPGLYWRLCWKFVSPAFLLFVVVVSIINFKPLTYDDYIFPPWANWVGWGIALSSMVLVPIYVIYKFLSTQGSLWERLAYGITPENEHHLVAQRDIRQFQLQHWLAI
Assay [6] addresses T3, Sodium-dependent noradrenaline transporter. The assay is described as follows: Percentage displacement of [3H]nisoxetine radioligand from norepinephrine transporter at concentration of 1000 nM.

The term Ki denotes a dissociation constant, usually derived from enzyme kinetics or from competition with a known ligand. Read a low Ki as tighter binding.

T1 sequence (Q01959 whole entry): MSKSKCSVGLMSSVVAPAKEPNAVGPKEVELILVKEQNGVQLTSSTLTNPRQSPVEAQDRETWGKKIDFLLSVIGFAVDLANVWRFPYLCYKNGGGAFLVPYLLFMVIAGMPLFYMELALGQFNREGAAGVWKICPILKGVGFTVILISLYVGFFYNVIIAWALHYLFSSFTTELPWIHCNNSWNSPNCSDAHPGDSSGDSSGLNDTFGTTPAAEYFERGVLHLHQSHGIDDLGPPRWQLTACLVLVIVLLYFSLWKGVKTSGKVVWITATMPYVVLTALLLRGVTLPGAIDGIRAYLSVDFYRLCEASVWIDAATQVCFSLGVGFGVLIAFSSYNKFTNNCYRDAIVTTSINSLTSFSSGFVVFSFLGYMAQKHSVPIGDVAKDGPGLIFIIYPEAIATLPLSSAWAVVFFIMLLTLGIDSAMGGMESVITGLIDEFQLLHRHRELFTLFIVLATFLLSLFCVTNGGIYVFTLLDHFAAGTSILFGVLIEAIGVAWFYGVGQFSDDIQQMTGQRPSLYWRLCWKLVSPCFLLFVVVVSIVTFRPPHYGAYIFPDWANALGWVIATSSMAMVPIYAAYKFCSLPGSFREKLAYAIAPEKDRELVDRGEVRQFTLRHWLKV

Regarding `CNCCCC1Cc2ccccc2N(c2ccc(C(F)(F)F)cc2)C1=O` (racemic), the inhibition constant (Ki) in assay [1] was greater than 200 nM; in assay [2], greater than 100 nM; in assay [5], 1430 nM. Also, the Activity in assay [3] was found to be 12%; in assay [4], 1%.
Turning to `CNCCCC1Cc2ccccc2N(c2ccccc2)C1=O` (stereo in doubt) [listing 1 of 2 here], the Activity came to 5% in assay [3] and 4% in assay [4].
On to `CNCCCC1Cc2ccccc2N(c2ccccc2)C1=O` (stereo in doubt) [listing 2 of 2 here], for which the Ki in assay [1] was greater than 200 nM; in assay [2], greater than 100 nM; in assay [5], 190 nM.
The corresponding values for `CNCCCC1Cc2ccccc2N(c2ccccc2)C1=O` (single isomer, unassigned; isomer 1) [listing 1 of 2 here] are greater than 200 nM, greater than 100 nM and 8 nM.
For `CNCCCC1(C)Cc2ccccc2N(c2cccc(C)c2)C1=O` (racemic), the inhibition constant (Ki) in assay [1] was greater than 200 nM; in assay [2] it was greater than 100 nM; in assay [5] it was 146 nM. For the same compound, the Activity in assay [3] and in assay [4] was 9% throughout.
As to `CNCCCC1Cc2ccccc2N(c2ccccc2)C1=O` (single isomer, unassigned; isomer 1) [listing 2 of 2 here], the results for the Activity in assay [3] and in assay [4] were 11% and 5%, respectively.
The corresponding values for `CNCCC1Cc2ccccc2N(c2ccccc2)C1=O` (stereo in doubt) [listing 1 of 2 here] are 9% and 9%.
`CNCCCC1(C)Cc2ccccc2N(c2ccc(F)c(F)c2)C1=O` (racemic): the inhibition constant (Ki) was greater than 200 nM in assay [1], greater than 100 nM in assay [2] and 77 nM in assay [5]. In addition, the Activity in assay [3] is 50%; in assay [4], 11%.
As for `CNCCCC1(C)Cc2ccccc2N(c2cc(F)cc(F)c2)C1=O` (racemic), the inhibition constant (Ki) in assay [1] was greater than 200 nM; in assay [2], greater than 100 nM; in assay [5], 165 nM. Moreover, the results for the Activity in assay [3] and in assay [4] were 19% and 9%, respectively.
Turning to `CNCCCC1Cc2ccccc2N(c2cccc(F)c2)C1=O` (racemic), the Ki was greater than 200 nM in assay [1], greater than 100 nM in assay [2] and 18 nM in assay [5]. Moreover, the Activity in assay [3] amounted to 10%; in assay [4] it was 9%.
Take `CNCCC1Cc2ccccc2N(c2ccccc2)C1=O` (single isomer, unassigned; isomer 1) [listing 1 of 2 here]: the Ki in assay [1] was greater than 200 nM; in assay [2] it was greater than 100 nM; in assay [5], 38 nM.
In the case of `CNCCCC1Cc2cc(Cl)ccc2N(c2ccc(C)cc2)C1=O` (racemic), the values for the Ki in assay [1], in assay [2] and in assay [5] were greater than 200 nM, greater than 100 nM and 6 nM, respectively. In addition, the Activity in assay [3] was found to be 7%; in assay [4], 15%.
The corresponding values for `CNCCCC1Cc2cc(F)ccc2N(c2ccc(C)cc2)C1=O` (racemic) are greater than 200 nM, greater than 100 nM, 5 nM, 5% and 45%.
Turning to `CNCCCC1(C)Cc2cc(Cl)ccc2N(c2ccc(C)cc2)C1=O` (racemic), the Ki in assay [2] was greater than 100 nM; in assay [5] it was 43 nM. In addition, in assay [4], the Activity stood at 15%.
On to `CCCC1(CCCNC)Cc2ccccc2N(c2ccccc2)C1=O` (racemic), for which the Ki in assay [1] is greater than 200 nM; in assay [2] it was greater than 100 nM; in assay [5], 7 nM. Moreover, the figures for the Activity in assay [3] and in assay [4] were 3% and 51%, respectively.
The corresponding values for `CNCCCC1(C)Cc2ccccc2N(c2ccc(C)cc2)C1=O` (racemic) are greater than 200 nM, greater than 100 nM, 9 nM, 3% and 12%.
As for `CNCCCC1(C)Cc2ccccc2N(c2cc(Cl)cc(Cl)c2)C1=O` (racemic), the figures for the inhibition constant Ki in assay [1], in assay [2] and in assay [5] were greater than 200 nM, greater than 100 nM and greater than 200 nM, respectively. Moreover, the Activity turned out to be 41% in assay [3], 39% in assay [6] and 10% in assay [4].
Consider `CNCCC1Cc2ccccc2N(c2ccccc2)C1=O` (stereo in doubt) [listing 2 of 2 here], for which the Ki in assay [1] was greater than 200 nM; in assay [2], greater than 100 nM; in assay [5] it was 54 nM.
On to `CNCCCC1Cc2ccccc2N(c2ccc(Cl)c(Cl)c2)C1=O` (racemic), for which the Ki in assay [1] was 13 nM; in assay [2], greater than 100 nM; in assay [5], 62 nM. The Activity in assay [4] came out at 8%.
Turning to `CNCCCC1Cc2ccccc2N(c2ccc(C)cc2)C1=O` (racemic), the results for the inhibition constant (Ki) in assay [1], in assay [2] and in assay [5] were greater than 200 nM, greater than 100 nM and 3 nM, respectively. The Activity is 19% in assay [3] and 15% in assay [4].
As to `CNCCC1Cc2ccccc2N(c2ccccc2)C1=O` (single isomer, unassigned; isomer 1) [listing 2 of 2 here], the values for the Activity in assay [3] and in assay [4] were 13% and 1%, respectively.
The corresponding values for `CNCCCC1Cc2ccccc2N(c2ccccc2)C1=O` (racemic) [listing 1 of 2 here] are 24% and 0%.
Turning to `CCCCC1(CCCNC)Cc2ccccc2N(c2ccc(C)cc2)C1=O` (racemic), the inhibition constant (Ki) was greater than 200 nM in assay [1] and 8 nM in assay [5]. In assay [3], the Activity came out at 18%.
Take `CCC1(CCCNC)Cc2cc(Cl)ccc2N(c2ccc(C)cc2)C1=O` (racemic): the Ki was greater than 200 nM in assay [1], 128 nM in assay [2] and 47 nM in assay [5]. Moreover, the Activity in assay [3] worked out at 3%.
As for `CNCCCC1Cc2ccccc2N(c2cccc(Cl)c2)C1=O` (racemic), the inhibition constant (Ki) in assay [1] was greater than 200 nM; in assay [2], greater than 100 nM; in assay [5] it was 79 nM. For the same compound, the Activity came out at 64% in assay [3] and 7% in assay [4].
The corresponding values for `CCc1ccc(N2C(=O)C(CCCNC)Cc3ccccc32)cc1` (racemic) are greater than 200 nM, greater than 100 nM, 150 nM, 9% and 3%.
Take `CNCCCC1Cc2ccccc2N(c2ccc(F)cc2)C1=O` (racemic): the inhibition constant (Ki) in assay [1] is greater than 200 nM; in assay [2], greater than 100 nM; in assay [5], 92 nM. Further, the Activity was 5% in assay [3] and 7% in assay [4].
The corresponding values for `CNCCCC1Cc2ccccc2N(c2ccc(Cl)cc2)C1=O` (centres undefined) are greater than 200 nM, greater than 100 nM, 21 nM, 50% and 8%.
As to `CCC1(CCCNC)Cc2ccccc2N(c2ccccc2)C1=O` (racemic), the inhibition constant (Ki) in assay [1] was greater than 200 nM; in assay [2] it was greater than 100 nM; in assay [5], 10 nM. Besides, the figures for the Activity in assay [3] and in assay [4] were 6% and 12%, respectively.
Consider `CNCCCC1Cc2ccccc2N(c2ccccc2)C1=O` (racemic) [listing 2 of 2 here], for which the Ki in assay [1] was greater than 200 nM; in assay [2], greater than 100 nM; in assay [5] it was 10 nM.
With `CNCCCCC1Cc2ccccc2N(c2ccccc2)C1=O` (centres undefined), the inhibition constant Ki in assay [1] was greater than 200 nM; in assay [2] it was greater than 100 nM; in assay [5], greater than 200 nM. Besides, the values for the Activity in assay [3], in assay [6] and in assay [4] were 12%, 53% and -3%, respectively.
As for `CNCCCC1(C)Cc2ccccc2N(c2ccc(C(C)C)cc2)C1=O` (racemic), the inhibition constant Ki is greater than 200 nM in assay [1], greater than 100 nM in assay [2] and greater than 200 nM in assay [5]. The figures for the Activity in assay [3], in assay [6] and in assay [4] were 2%, 18% and 5%, respectively.
`CCCC1(CCCNC)Cc2ccccc2N(c2ccc(C)cc2)C1=O` (racemic): the results for the Ki in assay [1], in assay [2] and in assay [5] were greater than 200 nM, 160 nM and 11 nM, respectively. In addition, the Activity in assay [3] was 9%.
Turning to `CNCCCC1(C)Cc2ccccc2N(c2ccccc2)C1=O` (racemic), the inhibition constant Ki in assay [1] was greater than 200 nM; in assay [2], greater than 100 nM; in assay [5], 44 nM. The Activity came to 10% in assay [3] and 9% in assay [4].
As to `CNCCCC1(C(C)C)Cc2ccccc2N(c2ccc(C)cc2)C1=O` (racemic), the inhibition constant (Ki) in assay [1] was greater than 200 nM; in assay [5], 150 nM. Moreover, the Activity in assay [3] turned out to be 7%.
Turning to `CCC1(CCCNC)Cc2ccccc2N(c2ccc(C)cc2)C1=O` (racemic), the figures for the Ki in assay [1], in assay [2] and in assay [5] were greater than 200 nM, greater than 100 nM and 17 nM, respectively. In addition, the Activity in assay [3] and in assay [4] was 11% in each case.

For the origin of these results see ChEMBL document CHEMBL1140387, “1-Aryl-3,4-dihydro-1H-quinolin-2-one derivatives, novel and selective norepinephrine reuptake inhibitors” (Bioorg Med Chem Lett, 2005).
